Measured values taken from patent publication US20070105877A1, “Pyrazolopyrimidines” (priority 2003, published 2007).

Target: PDE-5 (UniProt O76074)
Assay: In vitro PDE inhibitory activity against PDE5 (batch method or scintillation proximity assay)
Type: biochemical, human or rabbit
Conditions: representative preferred compounds
From the text: The compounds of the invention are inhibitors of cyclic guanylate monophosphate (cGMP)-specific phosphodiesterase type 5 (PDE-5 inhibitors).
In particular, cGMP-specific PDE5 and cGMP-inhibited cAMP PDE3 can be obtained from human corpus cavernosum tissue, human platelets or rabbit platelets; cGMP-stimulated PDE2 was obtained from human corpus cavernosum; calcium/calmodulin (Ca/CAM)-dependent PDE1 from human cardiac ventricle; cAMP-specific PDE4 from human skeletal muscle; and photoreceptor PDE6 from bovine retina. Phosphodiesterases 7-11 can be generated from full length human recombinant clones transfected into SF9 cells.
In summary, for the scintillation proximity assay the effect of PDE inhibitors was investigated by assaying a fixed amount of enzyme in the presence of varying inhibitor concentrations and low substrate, (cGMP or cAMP in a 3:1 ratio unlabelled to [^3H]-labeled at a concentration of ˜⅓ Km or less) such that IC50≅Kl. The final assay volume was made up to 100 μl with assay buffer [20 mM Tris-HCl pH 7.4, 5 mM MgCl2, 1 mg/ml bovine serum albumin]. Reactions were initiated with enzyme, incubated for 30-60 min at 30° C. to give <30% substrate turnover and terminated with 50 μl yttrium silicate SPA beads (containing 3 mM of the respective unlabelled cyclic nucleotide for PDEs 9 and 11).

Question: `CCNC(=O)c1nn(CCOCC)c2c(Nc3cc(C)ccn3)nc(NCC)nc12` [Example 8, 1-(2-ethoxyethyl)-N-ethyl-5-(ethylamino)-7-(4-methylpyridin-2-ylamino)-1H-pyrazolo[4,3-d]pyrimidine-3-carboxamide] was tested. Which IC50 did it give?
Answer: 0.333 nM

Question: With `CCOCCn1nc(C(=O)NC)c2nc(N(C)C)nc(Nc3cc(C)ccn3)c21` [Example 14, 5-(dimethylamino)-1-(2-ethoxyethyl)-N-methyl-7-(4-methylpyridin-2-ylamino)-1H-pyrazolo[4,3-d]pyrimidine-3-carboxamide] as the molecule, how does the IC50 read?
Answer: 0.26 nM

Question: `CCOCCn1nc(C(=O)NCCNC)c2nc(N(C)C)nc(Nc3cc(C)ccn3)c21` [Example 16] was tested. Which IC50 did it give?
Answer: 0.4 nM

Question: With `CCOCCn1nc(C(=O)NCCN(C)C)c2nc(N(C)C)nc(Nc3cc(C)ccn3)c21` [Example 17, 5-(dimethylamino)-N-(2-(dimethylamino)ethyl)-1-(2-ethoxyethyl)-7-(4-methylpyridin-2-ylamino)-1H-pyrazolo[4,3-d]pyrimidine-3-carboxamide] as the molecule, how does the IC50 read?
Answer: 0.24 nM

Question: Which IC50 does the source give for `CCOCCn1nc(C(=O)NC2CCNCC2)c2nc(N(C)C)nc(Nc3cc(C)ccn3)c21` [Example 18] here?
Answer: 0.06 nM

Question: With `CCOCCn1nc(C(=O)NCCOC)c2nc(N(C)C)nc(Nc3cc(C)ccn3)c21` [Example 19, 5-(dimethylamino)-1-(2-ethoxyethyl)-N-(2-methoxyethyl)-7-(4-methylpyridin-2-yl-amino)-1H-pyrazolo[4,3-d]pyrimidine-3-carboxamide] as the molecule, how does the IC50 read?
Answer: 0.09 nM

Question: How did the IC50 turn out when `CCOCCn1nc(C(=O)N[C@H](C)C(=O)O)c2nc(N(C)C)nc(Nc3cc(C)ccn3)c21` [Example 22, (2R)-2-{[5-(dimethylamino)-1-(2-ethoxyethyl)-7-(4-methylpyridin-2-ylamino)-1H-pyrazolo[4,3-d]pyrimidine-3-carbonyl]amino}propionic acid] was run?
Answer: 0.02 nM

Question: With `CCOCCn1nc(C(=O)NCCC(=O)O)c2nc(N(C)C)nc(Nc3cc(C)ccn3)c21` [Example 23, 3-{[5-(dimethylamino)-1-(2-ethoxyethyl)-7-(4-methylpyridin-2-ylamino)-1H-pyrazolo[4,3-d]pyrimidine-3-carbonyl]amino}propionic acid] as the molecule, how does the IC50 read?
Answer: 0.04 nM

Question: `CCOCCn1nc(C(=O)NC)c2nc(N3CCN[C@H](C)C3)nc(Nc3cc(C)ccn3)c21` [Example 30, 1-(2-ethoxyethyl)-N-methyl-5-((3R)-3-methylpiperazin-1-yl)-7-(4-methylpyridin-2-yl-amino)-1H-pyrazolo[4,3-d]pyrimidine-3-carboxamide] was tested. Which IC50 did it give?
Answer: 1.65 nM

Question: How did the IC50 turn out when `CCNC(=O)c1nn(CCOCC)c2c(Nc3cc(C)ccn3)nc(N3CCN[C@H](C)C3)nc12` [Example 32] was run?
Answer: 0.73 nM

Question: Which IC50 does the source give for `CCNc1nc(Nc2cc(C)ccn2)c2c(n1)c(C(=O)NC)nn2CCOCC` [Example 50, 1-(2-Ethoxyethyl)-5-(ethylamino)-N-methyl-7-(4-methylpyridin-2-ylamino)-1H-Pyrazolo[4,3-d]pyrimidine-3-carboxamide] here?
Answer: 1.31 nM

Question: How did the IC50 turn out when `CCOCCn1nc(C(=O)NCCOC)c2nc(NC)nc(Nc3cc(C)ccn3)c21` [Example 56, 1-(2-ethoxyethyl)-N-(2-methoxyethyl)-5-(methylamino)-7-(4-methylpyridin-2-ylamino)-1H-pyrazolo[4,3-d]pyrimidine-3-carboxamide] was run?
Answer: 1.63 nM

Question: With `CCOCCn1nc(C(=O)NCCO)c2nc(N(C)C)nc(Nc3cc(C)ccn3)c21` [Example 58, 5-(dimethylamino)-1-(2-ethoxyethyl)-N-(2-hydroxyethyl)-7-(4-methylpyridin-2-yl-amino)-1H-pyrazolo[4,3-d]pyrimidine-3-carboxamide] as the molecule, how does the IC50 read?
Answer: 0.13 nM

Question: `CCNc1nc(Nc2cc(C)ccn2)c2c(n1)c(C(=O)NCCOC)nn2CCOCC` [Example 60, 1-(2-ethoxyethyl)-5-(ethylamino)-N-(2-methoxyethyl)-7-(4-methylpyridin-2-ylamino)-1H-pyrazolo[4,3-d]pyrimidine-3-carboxamide] was tested. Which IC50 did it give?
Answer: 0.57 nM

Question: How did the IC50 turn out when `CCOCCn1nc(C(=O)NC)c2nc(N(C)CCO)nc(Nc3cc(C)ccn3)c21` [Example 61] was run?
Answer: 0.12 nM

Question: `CCOCCn1nc(C(=O)NC)c2nc(NCCOC)nc(Nc3cc(C)ccn3)c21` [Example 62, 1-(2-ethoxyethyl)-5-((2-methoxyethyl)amino)-N-methyl-7-(4-methylpyridin-2-ylamino)-1H-pyrazolo[4,3-d]pyrimidine-3-carboxamide] was tested. Which IC50 did it give?
Answer: 1.88 nM

Question: For `CCOCCn1nc(C(=O)NC)c2nc(N3CCN[C@H](C)C3)nc(NC3CCCCC3)c21` [Example 71, 7-(cyclohexylamino)-1-(2-ethoxyethyl)-N-methyl-5-((3R)-3-methylpiperazin-1-yl)-1H-pyrazolo[4,3-d]pyrimidine-3-carboxamide], which IC50 is on record?
Answer: 2.95 nM

Question: For `CCOCCn1nc(C(=O)NC)c2nc(N(C)[C@H]3CCN(C)C3)nc(Nc3cc(C)ccn3)c21` [Example 73, 1-(2-Ethoxyethyl)-N-methyl-5-[N-methyl-N-((3S)-1-methylpyrrolidin-3-yl)amino]-7-(4-methylpyridin-2-ylamino)-1H-pyrazolo[4,3-d]pyrimidine-3-carboxamide], which IC50 is on record?
Answer: 0.42 nM
